Test results taken from ChEMBL document CHEMBL1221293, “New effective inhibitors of the Abelson kinase” (Bioorg Med Chem, 2010).

Target: Tyrosine-protein kinase ABL1 (Homo sapiens, UniProt P00519)
Sequence (P00519 whole entry): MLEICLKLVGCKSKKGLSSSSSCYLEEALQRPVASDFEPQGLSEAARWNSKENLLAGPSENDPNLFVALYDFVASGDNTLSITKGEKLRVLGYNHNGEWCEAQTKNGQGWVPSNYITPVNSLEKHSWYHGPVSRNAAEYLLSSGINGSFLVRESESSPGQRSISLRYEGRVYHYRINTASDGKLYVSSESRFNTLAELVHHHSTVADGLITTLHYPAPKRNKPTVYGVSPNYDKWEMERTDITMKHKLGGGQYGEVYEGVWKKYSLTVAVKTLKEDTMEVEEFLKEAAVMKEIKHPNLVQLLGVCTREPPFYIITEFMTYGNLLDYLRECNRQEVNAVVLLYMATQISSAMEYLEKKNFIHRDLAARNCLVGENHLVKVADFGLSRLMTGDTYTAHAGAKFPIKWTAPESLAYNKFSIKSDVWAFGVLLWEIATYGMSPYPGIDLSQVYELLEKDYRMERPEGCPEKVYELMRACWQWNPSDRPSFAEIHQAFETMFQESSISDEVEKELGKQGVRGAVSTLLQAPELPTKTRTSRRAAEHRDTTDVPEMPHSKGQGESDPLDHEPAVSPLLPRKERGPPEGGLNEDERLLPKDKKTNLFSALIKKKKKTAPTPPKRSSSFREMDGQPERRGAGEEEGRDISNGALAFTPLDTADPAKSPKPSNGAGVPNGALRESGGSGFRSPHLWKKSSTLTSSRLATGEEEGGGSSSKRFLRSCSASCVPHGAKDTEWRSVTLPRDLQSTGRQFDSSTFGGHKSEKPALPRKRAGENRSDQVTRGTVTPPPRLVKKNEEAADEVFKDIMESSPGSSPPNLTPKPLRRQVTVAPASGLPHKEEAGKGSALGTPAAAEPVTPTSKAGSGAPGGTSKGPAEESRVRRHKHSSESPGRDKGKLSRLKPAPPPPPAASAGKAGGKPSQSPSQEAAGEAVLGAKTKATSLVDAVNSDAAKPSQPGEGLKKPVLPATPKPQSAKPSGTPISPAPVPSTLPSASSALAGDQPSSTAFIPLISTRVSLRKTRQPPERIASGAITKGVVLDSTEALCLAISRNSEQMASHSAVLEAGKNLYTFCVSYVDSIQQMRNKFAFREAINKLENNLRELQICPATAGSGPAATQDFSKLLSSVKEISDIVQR
Description: Inhibition of recombinant c-Abl after 30 mins

SMILES	Ki [nM]
Cn1c(=O)c(-c2ccccc2)cc2cnc(NCc3cccc(N)c3)nc21	2000
Cn1c(=O)c(-c2c(Cl)cccc2Cl)cc2cnc(NCc3cccc(C(=O)CCCC[C@@H]4SC[C@@H]5NC(=O)N[C@@H]54)c3)nc21	20
Cn1c(=O)c(-c2ccccc2Cl)cc2cnc(NCc3cccc(N)c3)nc21	60
Cn1c(=O)c(-c2c(F)cccc2F)cc2cnc(NCc3cccc(N)c3)nc21	40
Cn1c(=O)c(-c2ccccc2Br)cc2cnc(NCc3cccc(N)c3)nc21	40
Cn1c(=O)c(-c2c(Cl)cccc2Cl)cc2cnc(Nc3cccc(NC(=O)CN)c3)nc21	0.02

Results, then the molecule that gave them:

Ki [nM]	SMILES
900	CCCCCCNc1cccc(CNc2ncc3cc(-c4c(Cl)cccc4Cl)c(=O)n(C)c3n2)c1
20	Cn1c(=O)c(-c2c(Cl)cccc2Cl)cc2cnc(NCc3cccc(NC(=O)CN)c3)nc21
70	CSc1cccc(CNc2ncc3cc(-c4c(Cl)cccc4Cl)c(=O)n(C)c3n2)c1
8	Cn1c(=O)c(-c2c(Cl)cccc2Cl)cc2cnc(NCc3cccc(N)c3)nc21
